From US6723753B2, “Substituted n-benzyl-n-phenyl aminoalcohol compounds useful for inhibiting cholesteryl ester transfer protein activity” (Pharmacia Corporation, priority 2002, dated 2004)

Target: T1, CETP (Homo sapiens, UniProt P11597)
T1 sequence (P11597 18-493): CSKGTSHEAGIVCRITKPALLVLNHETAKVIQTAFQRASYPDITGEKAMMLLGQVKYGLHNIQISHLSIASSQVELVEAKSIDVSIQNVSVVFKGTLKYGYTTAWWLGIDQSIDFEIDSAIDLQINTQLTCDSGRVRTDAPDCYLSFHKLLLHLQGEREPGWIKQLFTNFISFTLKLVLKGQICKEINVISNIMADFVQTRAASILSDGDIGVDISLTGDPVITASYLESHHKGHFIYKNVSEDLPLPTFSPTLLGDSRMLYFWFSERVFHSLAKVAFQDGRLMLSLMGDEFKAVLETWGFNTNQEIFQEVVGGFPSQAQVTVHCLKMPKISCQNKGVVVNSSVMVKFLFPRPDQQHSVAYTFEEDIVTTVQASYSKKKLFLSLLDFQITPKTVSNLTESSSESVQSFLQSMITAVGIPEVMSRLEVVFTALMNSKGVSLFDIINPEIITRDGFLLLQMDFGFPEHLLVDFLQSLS
Assay: Assay of CETP Inhibition using Purified Components (Reconstituted Buffer Assay)
Type: biochemical
Parameters: made in house; host or cells: CHO cells (serum-free conditioned medium)
Details: Inhibition of CETP activity in reconstituted buffer assay; transfer of [3H]CE from HDL to LDL; read-out: IC50
Procedure, shortened: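 Purified human recombinant CETP from transfected CHO cells was incubated with [^3H]CE-labeled HDL donor and LDL acceptor in Tris pH 7.4/NaCl/EDTA/1% BSA buffer for 2 h at 37 °C. LDL was then precipitated with dextran sulfate/MgCl2, filtered, and counted by liquid scintillation to give IC50 for CE transfer.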

Row | Structure (SMILES) | IC50
1 | OC(CN(Cc1cc(F)cc(F)c1)c1cccc(OC(F)(F)F)c1)C(F)(F)F (centres unmarked) [Example 328] | > 100 µM
2 | OC(CN(Cc1cccc(Oc2ccccc2)c1)c1ccc(-c2ccccc2)cc1)C(F)(F)F (centres unmarked) [Example 86] | 20 µM
3 | OC(CN(Cc1cccc(OC(F)(F)C(F)F)c1)c1cccc(Sc2ccncc2)c1)C(F)(F)F (centres unmarked) [Example 474] | 6 µM
4 | CS(=O)(=O)c1ccc(-c2cccc(N(Cc3cccc(OC(F)(F)C(F)F)c3)CC(O)C(F)(F)F)c2)cc1 (centres unmarked) [Example 575] | > 50 µM
5 | OC(CN(Cc1cccc(OC(F)(F)C(F)F)c1)c1cccc(OCc2ccc(C(F)(F)F)cc2)c1)C(F)(F)F (centres unmarked) [Example 416] | 0.51 µM
6 | Cc1cccnc1-c1cccc(N(Cc2cccc(OC(F)(F)C(F)F)c2)CC(O)C(F)(F)F)c1 (centres unmarked) [Example 455] | 22 µM
7 | OC(CN(Cc1cccc(Oc2ccccc2)c1)c1ccc(C(F)(F)F)cc1)C(F)(F)F (centres unmarked) [Example 111] | 65 µM
8 | CCCCN(c1ccc(C(=O)OCC)cc1)c1cccc(N(Cc2cccc(OC(F)(F)C(F)F)c2)CC(O)C(F)(F)F)c1 (centres unmarked) [Example 313] | 20 µM
9 | OC(CN(Cc1ccc(C(F)(F)F)cc1)Cc1cccc(F)c1)C(F)(F)F (centres unmarked) [compound 169] | > 100 µM
10 | COc1cc(CN(CC(O)C(F)(F)F)c2cccc(OC(F)(F)F)c2)ccc1OC(C)=O (centres unmarked) [Example 119] | 70 µM
11 | OC(CN(Cc1cccc(Oc2ccccc2)c1)c1ccc2c(c1)OCO2)C(F)(F)F (centres unmarked) [Example 130] | 80 µM
12 | OC(CN(Cc1cccc(OC(F)(F)C(F)F)c1)c1cccc(-c2ccccn2)c1)C(F)(F)F (centres unmarked) [Example 451, 3-[[3-(2-pyridinyl)phenyl][[3-(1,1,2,2-tetrafluoroethoxy)phenyl]methyl]amino]-1,1,1-trifluoro-2-propanol] | 13 µM
13 | O=C(NCC(F)(F)F)c1cccc(N(Cc2cccc(OC(F)(F)C(F)F)c2)CC(O)C(F)(F)F)c1 (centres unmarked) [Example 463] | 13 µM
14 | OC(CN(Cc1cccc(OC(F)(F)C(F)F)c1)c1cccc(Oc2ccc(F)cc2Cl)c1)C(F)(F)F (centres unmarked) [Example 230] | 0.2 µM
15 | OC(CN(Cc1cccc(OC(F)(F)C(F)F)c1)c1cccc(-c2ccccc2C(F)(F)F)c1)C(F)(F)F (centres unmarked) [Example 570] | 1.8 µM
16 | CON(C)C(=O)c1cccc(CN(CC(O)C(F)(F)F)c2cccc(Oc3ccccc3)c2)c1 (centres unmarked) [620A] | 24.6 µM

Row | Structure (SMILES) | IC50
17 | OC(CN(Cc1cccc(OC(F)(F)C(F)F)c1)c1cccc(Oc2cccc(-c3ccccc3)c2)c1)C(F)(F)F (centres unmarked) [Example 264] | 1.4 µM
18 | CC(=O)Oc1ccc(CN(CC(O)C(F)(F)F)c2cccc(OC(F)(F)F)c2)cc1OC(C)=O (centres unmarked) [Example 118] | 45 µM
19 | OC(CN(Cc1cccc(OC(F)(F)C(F)F)c1)c1cccc(OC2CCOCC2)c1)C(F)(F)F (centres unmarked) [Example 507] | 2.3 µM
20 | CCOc1ccc(CN(CC(O)C(F)(F)F)c2cccc(OC(F)(F)F)c2)cc1 (centres unmarked) [Example 158] | 12 µM
21 | OC(CN(Cc1cccc(OC(F)(F)F)c1)c1ccc(F)c(F)c1)C(F)(F)F (centres unmarked) [Example 78] | 10 µM
22 | OC(CN(Cc1ccc(C(F)(F)F)cc1)Cc1ccccc1Cl)C(F)(F)F (centres unmarked) [compound 174] | > 100 µM
23 | CCOc1ccc(Oc2cccc(N(Cc3cccc(OC(F)(F)C(F)F)c3)CC(O)C(F)(F)F)c2)cc1 (centres unmarked) [Example 262] | 3.7 µM
24 | COc1cccc(N(Cc2cccc(OC(F)(F)F)c2)CC(O)C(F)(F)F)c1 (centres unmarked) [Example 124] | 8 µM
25 | OC(CN(Cc1cccc(Oc2ccc(Cl)cc2)c1)c1cccc(Oc2ccccc2)c1)C(F)(F)F (centres unmarked) [Example 92] | 12 µM
26 | FC(F)(F)CCCN(Cc1cccc(OC(F)(F)F)c1)c1cccc(Oc2ccccc2)c1 [Example 1671, N-(3-phenoxyphenyl)-N-(4,4,4-trifluorobutyl)-3-(trifluoromethoxy) benzenemethanamine] | 11 µM
27 | Oc1cccc(N(Cc2cccc(OC(F)(F)F)c2)CC(O)C(F)(F)F)c1 (centres unmarked) [Example 692] | 16 µM
28 | OC(CN(Cc1cccc(OC(F)(F)C(F)F)c1)c1cccc(OCc2c(F)c(F)c(F)c(F)c2F)c1)C(F)(F)F (centres unmarked) [Example 376] | 3.3 µM
29 | Cc1ccc(-c2cccc(N(Cc3cccc(OC(F)(F)C(F)F)c3)CC(O)C(F)(F)F)c2)cc1 (centres unmarked) [Example 566] | 2.7 µM
30 | OC(CCN(Cc1cccc(OC(F)(F)F)c1)Cc1cccc(OC(F)(F)F)c1)C(F)(F)F (centres unmarked) [Example 611, 4-[bis-[[3-(trifluoromethoxy)phenyl]methyl]amino]-1,1,1-trifluoro-2-butanol] | 12 µM
31 | COc1cc(CN(CC(O)C(F)(F)F)c2cccc(OC(F)(F)F)c2)ccc1OCc1ccccc1 (centres unmarked) [Example 106] | 30 µM
32 | COc1cccc(N(Cc2cccc(C(F)(F)F)c2)CC(O)C(F)(F)F)c1 (centres unmarked) [Example 48] | > 100 µM

Now from value to compound:

Row | IC50 | Structure (SMILES)
33 | > 100 µM | Oc1ccc(O)c(CN(CC(O)C(F)(F)F)c2cccc(OC(F)(F)F)c2)c1 (centres unmarked) [Example 358]
34 | 0.27 µM | OC(CN(Cc1cccc(OC(F)(F)C(F)F)c1)c1cccc(OCc2cccc(Cl)c2)c1)C(F)(F)F (centres unmarked) [Example 420]
35 | 3 µM | COC(=O)c1ccc(COc2cccc(N(Cc3cccc(OC(F)(F)C(F)F)c3)CC(O)C(F)(F)F)c2)cc1 (centres unmarked) [Example 388]
36 | 12 µM | CC(C)(C)CNC(=O)c1cccc(N(Cc2cccc(OC(F)(F)C(F)F)c2)CC(O)C(F)(F)F)c1 (centres unmarked) [Example 462]
37 | 1.2 µM | Cc1cc(-c2cccc(N(Cc3cccc(OC(F)(F)C(F)F)c3)CC(O)C(F)(F)F)c2)ccc1F (centres unmarked) [Example 569]
38 | 7 µM | N#Cc1cccc(N(Cc2cccc(OC(F)(F)F)c2)CC(O)C(F)(F)F)c1 (centres unmarked) [Example 162]
39 | > 100 µM | OC(CN(Cc1ccc(OC(F)(F)F)cc1)c1ccc(Oc2ccccc2)cc1)C(F)(F)F (centres unmarked) [Example 155]
40 | 25 µM | OC(CN(Cc1cccc(Oc2ccccc2)c1)c1cccc(C(F)(F)F)c1)C(F)(F)F (centres unmarked) [Example 109]
41 | > 100 µM | Cc1cccc(CN(CC(O)C(F)(F)F)c2cccc(Cl)c2)c1 (centres unmarked) [Example 9]
42 | 9.3 µM | CC(C)CC(=O)c1cccc(CN(CC(O)C(F)(F)F)c2cccc(Oc3ccccc3)c2)c1 (centres unmarked) [compound 621]
43 | 1.2 µM | OC(CN(Cc1cccc(OC(F)(F)C(F)F)c1)c1cccc(Cc2ccc(F)c(Cl)c2)c1)C(F)(F)F (centres unmarked) [Example 524]
44 | 35 µM | OC(CN(Cc1ccc2c(c1)OCCO2)c1cccc(OC(F)(F)F)c1)C(F)(F)F (centres unmarked) [Example 105]
45 | 2.3 µM | OC(CN(Cc1cccc(OC(F)(F)C(F)F)c1)c1cccc(NCc2cccc(OC(F)(F)C(F)F)c2)c1)C(F)(F)F (centres unmarked) [Example 544]
46 | 7.9 µM | CC(C)(O)c1cccc(CN(CC(O)C(F)(F)F)c2cccc(Oc3ccccc3)c2)c1 (stereo not drawn) [Example 617, α, α-dimethyl-3-[[(3-phenoxyphenyl)(3,3,3-trifluoro-2-hydroxypropyl)amino]methyl]benzenemethanol]
47 | 80 µM | OC(CN(Cc1cccc(OC(F)(F)F)c1)c1cccc(Cc2cccc(N(Cc3cccc(OC(F)(F)F)c3)CC(O)C(F)(F)F)c2)c1)C(F)(F)F (centres unmarked) [Example 665, 1,1′-[methylenebis[3,1-phenylene[[[3-(trifluoromethoxy)phenyl]methyl]imino]]]bis[3,3,3-trifluoro-2-propanol]]
48 | 10 µM | CC(=O)c1ccc(S(=O)(=O)c2cccc(N(Cc3cccc(OC(F)(F)C(F)F)c3)CC(O)C(F)(F)F)c2)cc1 (centres unmarked) [Example 486]
49 | 20 µM | OC(CN(Cc1ccc(OC(F)(F)F)cc1)c1cccc(Cl)c1)C(F)(F)F (centres unmarked) [Example 55]
50 | 0.43 µM | Cc1cc(Cc2cccc(N(Cc3cccc(OC(F)(F)C(F)F)c3)CC(O)C(F)(F)F)c2)ccc1F (centres unmarked) [Example 521]
